One test addresses T1, BACE2 (Rattus norvegicus, UniProt Q6IE75).
T1 construct: endogenous cellular BACE2 in the Ins1e rat cell line; endogenous in cells; host or cells: INS-TMEM27 (INS1e-derived rat cell line with TetOn-inducible full-length hTMEM27)
T1 sequence (Q6IE75 63-514): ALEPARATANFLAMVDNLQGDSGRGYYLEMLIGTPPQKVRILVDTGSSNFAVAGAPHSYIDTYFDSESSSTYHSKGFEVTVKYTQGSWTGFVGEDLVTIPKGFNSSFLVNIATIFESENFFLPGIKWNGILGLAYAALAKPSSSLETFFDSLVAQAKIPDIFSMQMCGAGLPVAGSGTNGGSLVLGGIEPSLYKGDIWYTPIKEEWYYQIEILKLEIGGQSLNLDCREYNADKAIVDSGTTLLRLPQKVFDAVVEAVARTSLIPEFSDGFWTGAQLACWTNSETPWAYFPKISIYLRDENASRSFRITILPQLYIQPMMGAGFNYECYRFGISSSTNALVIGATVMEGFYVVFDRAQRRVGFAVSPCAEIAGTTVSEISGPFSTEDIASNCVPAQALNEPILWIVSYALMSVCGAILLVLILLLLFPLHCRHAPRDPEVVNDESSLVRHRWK
Put plainly: Assay for BACE inhibition by measuring cellular TMEM27 cleavage. It counts as cell-based. Conditions: INS-TMEM27 cells (INS1e-derived); shed TMEM27 by ELISA; read-out: BACE2 cell act. IC50. In outline: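 Ins1e-derived INS-TMEM27 rat cells with doxycycline-inducible full-length human TMEM27; inhibitor added 2 h before doxycycline (500 ng/ml final), then 46 h at 37 °C. Shed TMEM27 in supernatant quantified by sandwich ELISA with anti-human-TMEM27 antibodies; EC50 from curve fit across inhibitor concentrations.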
(An ELISA detects its analyte on a solid surface through an enzyme-linked reagent.)

The next test can be described thus: in vivo effect. Conditions: po; % of control @ 30 mg/kg p.o.
In test [1] the target is T2, recombinant human cathepsin E (Homo sapiens, UniProt P14091).
T2 construct: purchased R&D Systems
T2 sequence (P14091 54-396): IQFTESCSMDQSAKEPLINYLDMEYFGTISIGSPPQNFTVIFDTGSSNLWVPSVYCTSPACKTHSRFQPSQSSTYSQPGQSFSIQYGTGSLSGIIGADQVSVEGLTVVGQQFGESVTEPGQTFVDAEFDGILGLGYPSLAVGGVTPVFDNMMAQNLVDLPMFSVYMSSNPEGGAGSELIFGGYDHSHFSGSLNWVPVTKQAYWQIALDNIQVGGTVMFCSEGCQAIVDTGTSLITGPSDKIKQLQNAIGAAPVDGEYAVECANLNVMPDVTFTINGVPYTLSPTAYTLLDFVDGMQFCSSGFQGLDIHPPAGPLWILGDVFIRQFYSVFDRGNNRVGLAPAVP
The test is described as follows: Cathepsin E fluorescent substrate kinetic assay. It counts as biochemical. Conditions: pH 4.5. From the text: (§1) Cathepsin D and Cathepsin E Fluorescent Substrate Kinetic Assays
The MR121 fluorescence assays described below are based on the fact that MR121 forms a non-fluorescent ground state complex with tryptophan. In solution this formation occurs at millimolar concentrations of tryptophan. The mechanism can be used to design a generic biochemical assay for proteases. […] In absence of protease activity, the substrates remain intact and the MR121 fluorescence is reduced by the high local Trp-concentration. If the substrates are cleaved by the enzymes the MR121 fluorescence is recovered.
The fluorescent substrate cathepsin D and cathepsin E kinetic assays were performed at room temperature in 384-well microtiter plates (black with clear flat bottom, non binding surface plates from Corning) in a final volume of 51 μl. The test compounds were serially diluted in DMSO (15 concentrations, 1/3 dilution steps) and 1 μl of diluted compounds were mixed for 10 min with 40 μl of cathepsin D (from human liver, Calbiochem) diluted in assay buffer (100 mM sodium acetate, 0.05% BSA, pH 5.5; final concentration: 200 nM) or with 40 μl of recombinant human cathepsin E (R&D Systems) diluted in assay buffer (100 mM sodium acetate, 0.05% BSA, pH 4.5; final concentration: 0.01 nM). […] The enzymatic reaction was followed in a plate: vision reader (Perkin Elmer) (excitation wavelength: 630 nm; emission: 695 nm) for at least 30 minutes in a kinetic measurement detecting an increase of MR121 fluorescence during the reaction time. The slope in the linear range of the kinetic was calculated and the IC50 of the test compounds were determined using a four parameter equation for curve fitting.

For test [2], the target named is T3, cathepsin D (from human liver) (Homo sapiens, UniProt P07339).
T3 construct: cathepsin D (from human liver, Calbiochem); purchased Calbiochem; host or cells: human liver
Put plainly: Cathepsin D fluorescent substrate kinetic assay. It counts as biochemical. Conditions: pH 5.5.
From the text: as §1
The MR121 fluorescence assays described below are based on the fact that MR121 forms a non-fluorescent ground state complex with tryptophan. In solution this formation occurs at millimolar concentrations of tryptophan. The mechanism can be used to design a generic biochemical assay for proteases. A substrate peptide is labeled at the N-terminus with tryptophan and at the C-terminus with the fluorophore MR121 (for cathepsin D the 10 amino acid peptide […]-MR121 was used; for cathepsin E, MR121-[…] was used). In absence of protease activity, the substrates remain intact and the MR121 fluorescence is reduced by the high local Trp-concentration. If the substrates are cleaved by the enzymes the MR121 fluorescence is recovered.
The fluorescent substrate cathepsin D and cathepsin E kinetic assays were performed at room temperature in 384-well microtiter plates (black with clear flat bottom, non binding surface plates from Corning) in a final volume of 51 μl. The test compounds were serially diluted in DMSO (15 concentrations, 1/3 dilution steps) and 1 μl of diluted compounds were mixed for 10 min with 40 μl of cathepsin D (from human liver, Calbiochem) diluted in assay buffer (100 mM sodium acetate, 0.05% BSA, pH 5.5; final concentration: 200 nM) or with 40 μl of recombinant human cathepsin E (R&D Systems) diluted in assay buffer (100 mM sodium acetate, 0.05% BSA, pH 4.5; final concentration: 0.01 nM). After addition of 10 μl of the cathepsin D substrate […]-MR121 diluted in cathepsin D assay buffer (final concentration: 300 nM) or 10 µl of the cathepsin E substrate MR121-[…] diluted in cathepsin E assay buffer (final concentration: 300 nM), the plates were strongly shaken for 2 minutes. The enzymatic reaction was followed in a plate: vision reader (Perkin Elmer) (excitation wavelength: 630 nm; emission: 695 nm) for at least 30 minutes in a kinetic measurement detecting an increase of MR121 fluorescence during the reaction time. The slope in the linear range of the kinetic was calculated and the IC50 of the test compounds were determined using a four parameter equation for curve fitting.

A further test addresses T4, BACE1 (Homo sapiens, UniProt P56817).
T4 construct: Human HEK293 cells which are stably transfected with a vector expressing a cDNA of the human APP wt gene (APP695); endogenous in cells; host or cells: HEK293 stably transfected with human APP695 wt
The test is described as follows: Cellular Aβ-lowering assay (Aβ40 ELISA). In kind it is cell-based. Conditions: HEK293 cells stably expressing human APP695; Aβ40 in culture supernatant; read-out: BACE1 cell act. Aβ40 IC50. In a few lines: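 Aβ40 in supernatant measured by sandwich ELISA (TMB, 450 nm) and quantified against a pure Aβ peptide standard curve.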

Molecules are shown by their SMILES. Where only a bound is given, the exact number is not on record here.

This is an account of results in patent US8389513B2, “2-amino-5,5-difluoro-5,6-dihydro-4H-[1,3]oxazin-4-yl)-phenyl]-amides” (Hoffmann-La Roche Inc., priority 2009, dated 2013).

By IC50 is commonly meant the concentration that inhibits the measured activity by half.

T4 sequence (P56817 46-501): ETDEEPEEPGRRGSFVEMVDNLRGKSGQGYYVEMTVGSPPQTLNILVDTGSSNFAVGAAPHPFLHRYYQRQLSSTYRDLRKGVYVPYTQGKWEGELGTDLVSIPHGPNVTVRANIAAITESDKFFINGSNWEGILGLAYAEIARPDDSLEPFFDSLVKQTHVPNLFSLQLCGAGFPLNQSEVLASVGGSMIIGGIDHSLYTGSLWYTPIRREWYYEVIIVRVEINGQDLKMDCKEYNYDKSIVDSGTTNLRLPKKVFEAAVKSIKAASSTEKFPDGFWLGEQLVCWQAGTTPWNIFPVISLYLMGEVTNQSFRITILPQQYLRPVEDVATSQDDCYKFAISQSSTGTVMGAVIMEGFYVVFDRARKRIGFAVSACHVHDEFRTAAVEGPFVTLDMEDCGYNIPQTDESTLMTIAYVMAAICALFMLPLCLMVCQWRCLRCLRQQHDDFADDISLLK
T3 sequence (P07339 65-412): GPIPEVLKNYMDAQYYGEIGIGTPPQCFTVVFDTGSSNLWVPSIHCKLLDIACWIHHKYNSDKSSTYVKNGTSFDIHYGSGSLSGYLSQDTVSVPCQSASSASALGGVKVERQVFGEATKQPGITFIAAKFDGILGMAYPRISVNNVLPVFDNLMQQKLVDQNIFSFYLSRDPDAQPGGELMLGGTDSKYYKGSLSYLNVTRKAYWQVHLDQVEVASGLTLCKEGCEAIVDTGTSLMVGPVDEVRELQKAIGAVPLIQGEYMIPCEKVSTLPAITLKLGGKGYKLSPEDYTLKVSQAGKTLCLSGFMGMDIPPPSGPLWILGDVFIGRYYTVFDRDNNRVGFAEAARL

For the molecule `C[C@]1(c2cc(NC(=O)c3ccc(C#N)cn3)ccc2F)N=C(N)OCC1(F)F` [Example 11, 5-Cyano-pyridine-2-carboxylic acid [3-((R)-2-amino-5,5-difluoro-4-methyl-5,6-dihydro-4H-[1,3]oxazin-4-yl)-4-fluoro-phenyl]-amide], the IC50 is 74 nM at BACE2, 73000 nM in test [1] and 69000 nM in test [2]. Besides, the response vs control in vivo at 30 mg/kg in the test “in vivo effect” was under 50%.
Consider `C[C@]1(c2cc(NC(=O)c3ncccc3C(F)(F)F)ccc2F)N=C(N)OCC1(F)F` [Example 6, 3-Trifluoromethyl-pyridine-2-carboxylic acid [3-((R)-2-amino-5,5-difluoro-4-methyl-5,6-dihydro-4H-[1,3]oxazin-4-yl)-4-fluoro-phenyl]-amide], for which the IC50 on BACE1 is 180 nM; at BACE2, 330 nM.
With `C[C@]1(c2cc(NC(=O)c3ncc(Cl)cc3F)ccc2F)N=C(N)OCC1(F)F` [Example 15, 5-Chloro-3-fluoro-pyridine-2-carboxylic acid [3-((R)-2-amino-5,5-difluoro-4-methyl-5,6-dihydro-4H-[1,3]oxazin-4-yl)-4-fluoro-phenyl]-amide], the IC50 on BACE1 is 9 nM; at BACE2, 52 nM.
Consider `Cc1nc(C(=O)Nc2ccc(F)c([C@@]3(C)N=C(N)OCC3(F)F)c2)c(C(F)(F)F)o1` [Example 60, 2-Methyl-5-trifluoromethyl-oxazole-4-carboxylic acid [3-((R)-2-amino-5,5-difluoro-4-methyl-5,6-dihydro-4H-[1,3]oxazin-4-yl)-4-fluoro-phenyl]-amide], for which the IC50 at BACE1 turned out to be 88 nM; on BACE2, 367 nM.
As for `C[C@]1(c2cc(NC(=O)c3cnc(C(F)(F)F)cn3)ccc2F)N=C(N)OCC1(F)F` [Example 17, 5-Trifluoromethyl-pyrazine-2-carboxylic acid [3-((R)-2-amino-5,5-difluoro-4-methyl-5,6-dihydro-4H-[1,3]oxazin-4-yl)-4-fluoro-phenyl]-amide], the IC50 turned out to be 86 nM at BACE1 and 1220 nM at BACE2.
As to `C[C@]1(c2cc(NC(=O)c3ccc(OCC(F)(F)F)cn3)ccc2F)N=C(N)OCC1(F)F` [Example 14, 5-(2,2,2-Trifluoro-ethoxy)-pyridine-2-carboxylic acid [3-((R)-2-amino-5,5-difluoro-4-methyl-5,6-dihydro-4H-[1,3]oxazin-4-yl)-4-fluoro-phenyl]-amide], the IC50 worked out at 290 nM at BACE1 and 19200 nM at BACE2.
For `CC1(C)OC(N)=N[C@](C)(c2cc(NC(=O)c3ccc(Cl)cn3)ccc2F)C1(F)F` [Example 19, 5-Chloro-pyridine-2-carboxylic acid [3-((R)-2-amino-5,5-difluoro-4,6,6-trimethyl-5,6-dihydro-4H-[1,3]oxazin-4-yl)-4-fluoro-phenyl]-amide], the 50% inhibitory concentration (IC50) on BACE1 was 70 nM; on BACE2 it was 120 nM.
Consider `C[C@]1(c2cc(NC(=O)c3ncc(Cl)nc3Cl)ccc2F)N=C(N)OCC1(F)F` [Example 48, 3,5-Dichloro-pyrazine-2-carboxylic acid [3-((R)-2-amino-5,5-difluoro-4-methyl-5,6-dihydro-4H-[1,3]oxazin-4-yl)-4-fluoro-phenyl]-amide], for which the figures for the IC50 on BACE1 and on BACE2 were 1130 nM and 6740 nM, respectively.
For `CC1(C)OC(N)=N[C@](C)(c2cc(NC(=O)c3ccc(OC(F)F)cn3)ccc2F)C1(F)F` [Example 27, 5-Difluoromethoxy-pyridine-2-carboxylic acid [3-((R)-2-amino-5,5-difluoro-4,6,6-trimethyl-5,6-dihydro-4H-[1,3]oxazin-4-yl)-4-fluoro-phenyl]-amide], the values for the IC50 at BACE1 and at BACE2 were 47 nM and 5350 nM, respectively.
Regarding `C[C@]1(c2cc(NC(=O)c3ccc(OC(F)F)cn3)ccc2F)N=C(N)OCC1(F)F` [Example 41, 5-Difluoromethoxy-pyridine-2-carboxylic acid [3-((R)-2-amino-5,5-difluoro-4-methyl-5,6-dihydro-4H-[1,3]oxazin-4-yl)-4-fluoro-phenyl]-amide], the IC50 came out at 11 nM at BACE1 and 855 nM on BACE2.
`C[C@]1(c2cc(NC(=O)C3CC3(F)F)ccc2F)N=C(N)OCC1(F)F` (mixture of isomers) [Example 74, (RS)-2,2-Difluoro-cyclopropanecarboxylic acid [3-((R)-2-amino-5,5-difluoro-4-methyl-5,6-dihydro-4H-[1,3]oxazin-4-yl)-4-fluoro-phenyl]-amide]: the figures for the IC50 at BACE1 and on BACE2 were 510 nM and 590 nM, respectively.
